According to patent US20240058343A1, “TREATMENT OF URTICARIA USING JAK INHIBITORS” (Incyte Corporation, priority 2022, published 2024):
Where two headings read alike, the source gives them in different places.

How the values were obtained:
IgE = settings: CSU patients, after 12 weeks, with second-generation H1 antihistamine, cited from earlier work
[1] = biological target: human JAK1 (a.a. 837-1142) (Homo sapiens, UniProt P23458); test: In vitro JAK kinase assay (HTRF), JAK1; format: biochemical; settings: 1 mM ATP
Method: (§1) The catalytic activity of JAK1, JAK2 or JAK3 was assayed by measuring the phosphorylation of a biotinylated peptide. The phosphorylated peptide was detected by homogenous time resolved fluorescence (HTRF). IC5os of compounds are measured for each kinase in the 40 microL reactions that contain the enzyme, ATP and 500 nM peptide in 50 mM Tris (pH 7.8) buffer with 100 mM NaCl, 5 mM DTT, and 0.1 mg/mL (0.01%) BSA. […] Reactions are carried out at room temperature for 1 hour and then stopped with 20 μL 45 mM EDTA, 300 nM SA-APC, 6 nM Eu-Py20 in assay buffer (Perkin Elmer, Boston, MA). Binding to the Europium labeled antibody takes place for 40 minutes and HTRF signal was measured on a Fusion plate reader (Perkin Elmer, Boston, MA).

JAK2 (a.a. 828-1132) = JAK2 (a.a. 828-1132) (Homo sapiens (Human), UniProt O60674); test: In vitro JAK kinase assay (HTRF), JAK2, for JAK2/JAK1 ratio; format: biochemical; settings: IC50 ratio at 1 mM ATP
Method: as §1

CSU skin = test: Ex vivo culture of CSU lesional skin biopsies, RNA-seq gene expression; format: cell-based, human
Method: Full-thickness cutaneous skin biopsies were obtained from active disease, untreated, urticaria patients. A single 4mm-punch biopsy was obtained from the same lesion for each patient and longitudinally divided into two pieces. Biopsies were cultured for 24 hours in KBM media+CaCl2, with or without compound (i.e., Compound 1) or DMSO (control). After 24 hours, tissue RNA was isolated for subsequent analysis. RNA extracts were quantified with the Qubit fluorometer (Invitrogen) and quality assessed by TapeStation automated electrophoresis (Agilent Technologies). Total RNA (250 ng) treated with amplification-grade DNase I (Invitrogen) were enriched for non-ribosomal RNA using the NEBNext rRNA Depletion Kit v2 (New England BioLabs). Library preparation was performed with the NEBNext Ultra II Directional RNA Library Prep Kit for Illumina (New England BioLabs) following the manufactures protocol for library preparation of intact or partially degraded RNA (section 2). For comparability, the same protocol was used for all samples. RNA-seq libraries were pooled and paired-end sequencing was performed on the NextSeq 2000 (Illumina) with an average sequencing depth of 200 M reads. FASTQ files were processed with Nextflow RNASeq pipeline (v. 22.10.1). […] The effects of JAK1 inhibition with Compound 1 on DEGs identified in the prior analysis were further evaluated. […]

Chain of JAK2 (a.a. 828-1132) (O60674 828-1132): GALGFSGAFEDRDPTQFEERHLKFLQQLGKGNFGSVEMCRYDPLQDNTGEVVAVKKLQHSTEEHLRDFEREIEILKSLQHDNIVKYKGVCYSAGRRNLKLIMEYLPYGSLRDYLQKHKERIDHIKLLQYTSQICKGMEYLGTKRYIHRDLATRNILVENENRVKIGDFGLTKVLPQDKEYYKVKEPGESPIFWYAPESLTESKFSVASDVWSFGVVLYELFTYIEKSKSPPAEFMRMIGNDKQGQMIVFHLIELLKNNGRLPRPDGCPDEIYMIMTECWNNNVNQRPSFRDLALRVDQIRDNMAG

Molecule | patients achieving a complete response (IgE) | patients achieving a complete response (IgE; listed as omalizumab) [%] | IC50 [1] [µM] | JAK2/JAK1 (JAK2 (a.a. 828-1132)) | PTX3 expression (CSU skin; CSU skin, 24 hour ex vivo treatment, FIG. 1) | CCL2, S100A8, SELE and PTX3 expression (CSU skin; cultured CSU skin, 24 hours, vs DMSO control)
Omalizumab: an anti-IgE monoclonal antibody (administered subcutaneously) | approximately 35% | ~35 | – | – | – | –
N#CCC1(n2cc(-c3ncnc4[nH]ccc34)cn2)CN(C2CCN(C(=O)c3ccnc(C(F)(F)F)c3F)CC2)C1 [compound 1, {1-{1-[3-Fluoro-2-(trifluoromethyl)isonico-tinoyl]piperidin-4-yl}-3-[4-(7H-pyrrolo[2,3-d]pyrimidin-4-yl)-1H-pyrazol-1-yl]azetidin-3-yl}acetonitrile] | – | – | < 0.01 | >10 | dramatically reduced | altered expression
N#CC[C@]1(n2cc(-c3ncnc4[nH]ccc34)cn2)C[C@H](N2CCC(Oc3cc(CCO)cc(C(F)(F)F)n3)CC2)C1 [compound 26, {trans-3-(4-{[4-(2-hydroxyethyl)-6-(trifluoromethyl)pyridin-2-yl]oxy}piperidin-1-yl)-1-[4-(7H-pyrrolo[2,3-d]pyrimidin-4-yl)-1H-pyrazol-1-yl]cyclobutyl}acetonitrile] | – | – | < 0.01 | >10 | – | –
C[C@@H](O)CNCc1cc(OC2CCN([C@H]3C[C@](CC#N)(n4cc(-c5ncnc6[nH]ccc56)cn4)C3)CC2)nc(C(F)(F)F)c1 [compound 24, {trans-3-(4-{[4-({[(2R)-2-hydroxypropyl]amino}methyl)-6-(trifluoromethyl)pyridin-2-yl]oxy}piperidin-1-yl)-1-[4-(7H-pyrrolo[2,3-d]pyrimidin-4-yl)-1H-pyrazol-1-yl]cyclobutyl}acetonitrile] | – | – | < 0.01 | >10 | – | –
N#CC[C@]1(n2cc(-c3ncnc4[nH]ccc34)cn2)C[C@H](N2CCN(C(=O)c3ccnc(C(F)(F)F)n3)CC2)C1 [compound 10, [trans-1-[4-(7H-pyrrolo[2,3-d]pyrimidin-4-yl)-1H-pyrazol-1-yl]-3-(4-{[2-(trifluoromethyl)pyrimi-din-4-yl]carbonyl}piperazin-1-yl)cyclobutyl]acetonitrile] | – | – | < 0.01 | >10 | – | –
N#CCC(C1CCN(c2cccc(Cl)n2)C1)n1cc(-c2ncnc3[nH]ccc23)cn1 (single isomer, unassigned) [compound 6, 3-[1-(6-chloropyridin-2-yl)pyrrolidin-3-yl]-3-[4-(7H-pyrrolo[2,3-d]pyrimidin-4-yl)-1H-pyrazol-1-yl]propanenitrile] | – | – | < 0.01 | >10 | – | –
CC(C)(O)c1cc(O[C@H]2CC[C@@H](N3CC(CC#N)(n4cc(-c5ncnc6[nH]ccc56)cn4)C3)CC2)nc(C(F)(F)F)c1 [compound 20, {1-(cis-4-{[4-(1-hydroxy-1-methylethyl)-6-(trifluoromethyl)pyridin-2-yl]oxy}cyclohexyl)-3-[4-(7H-pyrrolo[2,3-d]pyrimidin-4-yl)-1H-pyrazol-1-yl]azetidin-3-yl}acetonitrile] | – | – | < 0.01 | >10 | – | –
